Measured values from US9566251B2, “Volatile anesthetic compositions and methods of use” (Board of Regents, The University of Texas System, priority 2008, dated 2017).
Values joined by “and” are separate entries in the source; they are usually repeats but may differ in a detail not shown here. Identical values can stand only once.

How the values were obtained:
Sprague-Dawley rats = test: Hotplate test (thermal withdrawal latency) after intrathecal injection of volatile anesthetic; format: in vivo; details: rat; for Thermal withdrawal latency, Average / Thermal withdrawal latency, Group Average: 2 microliters intrathecal; for Thermal withdrawal latency, Average: average per rat; for Thermal withdrawal latency, Group Average: group of four rats, saline control 8.33 seconds; for thermal latency time (analgesic effect): intrathecally delivered dose of 2 microliters
Protocol: This study was designed to evaluate efficacy of direct intrathecal injection of volatile anesthetic in reducing pain and providing analgesia. The study was conducted over a one (1) month period using the volatile anesthetics isoflurane and sevoflurane injected directly intrathecally or dissolved in saline as shown in the studies below. The subject animal used was the rat, since the rat has a well-established model of pain/analgesia testing. In particular, Sprague-Dawley rats weighing over 350 gm were used. The rats were anesthetized with pentobarbital (50 mg/kg), and the anesthetic depth of the animals was determined by corneal reflex and paw withdrawal reflex to a noxious stimulus.
[…]. A midline surgical dissection of the posterior neck muscles was performed to obtain access to the occipito-atlantoid membrane. This membrane was identified and then dissected. A sterile polyethylene catheter was introduced in the subarachnoid space until the lumbar enlargement of the spinal cord (approximately 7-8 cm measured in each animal). The surgical wound was closed, first suturing the neck muscles with 3-0 silk sutures and then closing the skin incision with staples.
After the surgery, the rats were moved to their cages and a radiant lamp was placed over the cages so that the rats would not undergo anesthetic-induced hypothermia. The rats were continuously monitored from the end of the surgery until they were fully awake. Rats showing any motor impairment after surgery were euthanized.
On the fifth day after surgery, those rats without wound infection or motor dysfunction were transported to the pain behavioral lab to enter the intrathecal study with volatile anesthetics. Twelve rats were selected for the study. All these rats had intrathecal catheters. Isoflurane (1-chloro-2,2,2-trifluoroethyl difluoromethyl ether) and sevoflurane (fluoromethyl 2,2,2-trifluoro-1-(trifluoromethyl)ethyl ether) were used as the halogenated ether compounds. Both of these are halogenated volatile anesthetics, with isoflurane manufactured by Baxter and sevoflurane manufactured by Abbott Laboratories. The 12 rats were divided into 3 groups of four rats each for study A and B.
In the second group, 2 microliters of isoflurane was injected via the intrathecal catheter into each rat. This catheter was also flushed with preservative-free normal saline. This group was then subjected to pain behavioral testing.
In the third group, 2 microliters of sevoflurane was injected via the intrathecal catheter into each rat. This catheter was also flushed with preservative-free normal saline. This group was then subjected to pain behavioral testing.
A “hotplate” behavioral test was used to evaluate pain perception and analgesia. The pain behavioral testing model used in these studies have been well established by Tony Yaksh. (See, for example Chaplan et al., 1994, J. Neurosci. Methods, 53:55-63; Yaksh et al., 2001, J. Appl. Physiol., 90:2386-2402; Kim and Chung, 1992, Pain, 50:355-363.; Sorkin et al., 2001, Anesthesiology, 95:965-973). This test involves determining how quickly a rat will withdraw its hind paw in response to a noxious stimulus such as a radiant heat source placed directly underneath its paw. This time for withdrawal is known as “thermal withdrawal latency”.
Rats were transferred for testing onto a modified Hargreaves apparatus with a heated glass plate maintained at 25° C. (see Hargreaves et al., 1998, Pain, 32:77-88). A focused projection bulb below the plate was aimed at the mid-plantar surface of the paw. A photodiode-activated timer measured the withdrawal latency, and a cutoff time of 25 seconds was used to prevent tissue damage. Thermal withdrawal latency to radiant heat was measured at 5 minutes and 30 minutes after each intrathecal injection. Each paw was tested three times, and the results were averaged. The below data was collected for both the right and left hind paws: […]

[1] = Isoflurane stability: weighing remaining isoflurane in uncapped vials over time; format: physicochemical; details: uncapped vial in fume hood
Protocol: In the Examples that follow, the stability of isoflurane in the described compositions was determined in two ways. First, the compositions were examined for the presence of phase separation at the macroscopic level. Secondly, isoflurane content of the compositions was determined by weighing the remaining isoflurane in the composition when they were left uncapped over time. […] The other vials received varying amounts of isoflurane. They were left uncapped in the hood. Over time, the vials were weighed to see if the isoflurane stayed in the composition or had evaporated. The amount evaporated over time in the vehicle control was subtracted from that in the isoflurane-containing composition. The pure form of isoflurane is a volatile anesthetic. In order to assess the volatility of isoflurane, two vials received the indicated amounts of pure form isoflurane. The vials were placed in the chemical fume hood and left uncapped. The vials were weighed at the indicated times to determine the amount of evaporated isoflurane. As it is shown in the table below 0.7893 g isoflurane was evaporated within 3 hours, while 3.4825 g isoflurane took approximately 8 hrs to evaporate completely. These amounts of isoflurane are similar to the amounts of isoflurane that were used to prepare the isoflurane compositions in the Examples that follow.

rats = test: Plantar Heat Stimulation Test after subcutaneous injection into the hindpaw; format: in vivo; details: rat, 100 μl subcutaneously into one hindpaw; for antinociceptive effect (paw withdrawal latency, treated vs untreated paw): cutoff 22 seconds
Protocol: Rats are assessed for response to thermal stimulation using the Plantar Heat Stimulation Test (i.e., radiant heat) (Planar Analgesia Instrument, Ugo Basile, Italy) by measuring paw withdrawal latency. 100 μl of pureform Isoflurane or 100 μl of 2% Lidocaine was injected subcutaneously into the planar surface of one hindpaw of each rat. For each rat, the untreated, contralateral hindpaw served as its own control.
After the rats acclimated for 15 minutes under acrylic boxes that allow minimal movement, a heat source was positioned beneath the mid-plantar surface of the hind paw. Withdrawal latency was defined as the period of time from the beginning of the thermal stimulation to the brisk withdrawal of the hind paw. To avoid tissue damage, a cutoff time of 22 seconds was set. Thermal stimulation was applied three times to each hind paw at an interstimulus interval of 3-5 minutes. Thermal withdrawal latency was assessed before and after the treatment. An increase in the withdrawal latency in the treated paw compared to the control paw was assessed as analgesic activity of the tested formulation.
For statistical comparison, student paired t-test analysis was used. Differences were considered significant at P<0.05 (# P<0.05 isoflurane versus control n=4; * P<0.05 lidocaine versus control n=3).

Structure (SMILES) | Thermal withdrawal latency, Average (Sprague-Dawley rats; 5 minutes after injection) | Thermal withdrawal latency, Group Average (Sprague-Dawley rats; 5 minutes after injection) | Thermal withdrawal latency, Average (Sprague-Dawley rats; 30 minutes after injection) | thermal latency time (analgesic effect) (Sprague-Dawley rats) | time until isoflurane was evaporated ([1]; 0.7893 g pure form) | time to evaporate completely ([1]; 3.4825 g pure form) | duration of antinociceptive effect (rats) | antinociceptive effect (paw withdrawal latency, treated vs untreated paw) (rats) | antinociceptive effect began at (rats; time after administration) | antinociceptive effect peaked at (rats; time after administration) | antinociceptive effect returned to baseline levels at (rats; time after administration)
FC(F)OC(Cl)C(F)(F)F (centres unmarked) [Isoflurane, 1-chloro-2,2,2-trifluoroethyl difluoromethyl ether] | 19.25 s and 18.21 s and 18.63 s and 17.95 s | 18.51 s | 9.48 s and 8.93 s and 10.52 s and 9.21 s | significantly increased | ≤ 3 h | approximately 8 hrs | continued throughout the experiment | significant antinociceptive effect | 25 min | – | –
CCN(CC)CC(=O)Nc1c(C)cccc1C [Lidocaine] | – | – | – | – | – | – | – | significant antinociceptive effect | 5 min | 15 min | 45 min
FCOC(C(F)(F)F)C(F)(F)F [Sevoflurane, fluoromethyl 2,2,2-trifluoro-1-(trifluoromethyl)ethyl ether] | 14.65 s and 13.82 s and 13.14 s and 12.98 s | 13.65 s | 8.61 s and 8.35 s and 8.89 s and 9.54 s | significantly increased | – | – | – | – | – | – | –
